Data from US20070141645A1, “Measuring method using whole blood” (MITSUBISHI KAGAKU IATRON, INC., priority 2005, published 2007).
Like-named read-outs stand apart in the source and are kept apart here.

Key:
[1] = target: endogenous ALP in whole blood (Homo sapiens, UniProt P05186); conditions: for Positive control (S) measured value (count of luminescence): cTnI 10 ng/mL added
Experimental: Each sample was measured using a reagent kit for measuring cardiac troponin I (cTnI). The kit contained a solution of the first antibody specific to cTnI (a solution of magnetic particles), a solution of the labeled second antibody, a B/F washing liquid, a substrate solution, and the like, and was packaged in a cartridge applicable to an automated immunoanalyzer described below. In this example, a buffer not containing a labeled antibody was used, instead of the solution of the second antibody labeled with an alkaline phosphatase (hereinafter referred to as “ALP”). The measurement was carried out using an automated immunoanalyzer for an immunoassay using magnetic particles, as disclosed in Japanese Patent No. 3115501. […] The measuring step in the analyzer will be described below.
A chemiluminescent substrate CDP-Star (Tropics) was used as a substrate. A count of luminescence detected by a photomultiplier tube (PMT) was regarded as a result of the measurement.
Each cartridge for an automatic measurement was filled with each sample, a liquid for diluting a sample, the solution of magnetic particles (coated with the first antibody), the washing liquid for B/F separation, the solution of the second antibody, the substrate solution, and the like, and set to the automated analyzer. The following steps were carried out in accordance with a normal procedure: • (1) The sample solution, the solution of magnetic particles, and the solution of the second antibody, previously adjusted to predetermined dilutions with the diluting liquid, were mixed to generate an immunocomplex by an antigen-antibody reaction. • (2) A B/F separation was carried out to remove unreacted substances as follows. The resulting reaction liquid was aspirated into the tip arranged as a line for aspirating a solution, and the magnetic particles were trapped by contact with a magnet on the outer wall of the tip. The solution was delivered from the tip while trapping the magnetic particles on the inner wall of the tip. After the separation, the washing liquid for the B/F separation filled in another reaction vessel was aspirated and delivered to wash the magnetic particles in the tip. • (3) The magnet was separated from the outer wall of the tip. The substrate solution was aspirated and delivered to disperse the magnetic particles trapped on the inner wall of the tip and carry out an enzyme reaction. • (4) An amount of luminescence was measured by PMT.
(§1) The whole blood sample showing a high background in Example 1 was used as a whole blood negative control, and a plasma obtained by centrifuging the whole blood sample was used as a plasma negative control. Further, a sample obtained by adding a commercially available cTnI (10 ng/mL) to the whole blood sample was used as a whole blood positive control, and a plasma obtained by centrifuging the whole blood positive control was used as a plasma positive control. The obtained 4 samples were measured using the automated immunoanalyzer and the reagent kit for measuring cTnI, as described in Example 1 or 2, except that the ALP-labeled antibody was used as the second antibody.
(§2) Levamisole (SIGMA) was used to examine an inhibitory effect on an endogenous ALP. Levamisole was added to the solution of magnetic particles, the substrate solution, or both thereof at the final concentration of 0.2 mM. When levamisole was added to the solution of magnetic particles, the inhibitor acted in the measuring step (1) of the automated immunoanalyzer described in Example 1. When levamisole was added to the substrate solution, the inhibitor acted in the measuring step (3).

[2] = tested on: ALP used as the label; conditions: addition of levamisole 0.2 mM; positive control
Experimental: as §1, §2

[3] = target: endogenous ALP (Homo sapiens, UniProt P05186); conditions: 3 weeks
Sequence of endogenous ALP (P05186 18-501 limits assumed): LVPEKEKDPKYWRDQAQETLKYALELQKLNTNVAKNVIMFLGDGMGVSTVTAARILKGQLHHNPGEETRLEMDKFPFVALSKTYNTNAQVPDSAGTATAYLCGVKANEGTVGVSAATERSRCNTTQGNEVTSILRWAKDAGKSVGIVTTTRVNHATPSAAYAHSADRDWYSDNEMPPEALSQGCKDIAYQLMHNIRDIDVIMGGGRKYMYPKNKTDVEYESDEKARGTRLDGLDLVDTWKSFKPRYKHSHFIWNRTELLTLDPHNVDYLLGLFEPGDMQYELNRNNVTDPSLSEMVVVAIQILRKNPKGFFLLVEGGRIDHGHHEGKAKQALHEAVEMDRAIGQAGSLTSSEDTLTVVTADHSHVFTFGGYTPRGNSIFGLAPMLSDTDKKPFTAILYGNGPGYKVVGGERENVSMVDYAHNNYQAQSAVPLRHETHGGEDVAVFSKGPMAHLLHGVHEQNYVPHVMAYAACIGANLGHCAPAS
Experimental: To a solution containing 0.4 mM CDP-Star, levamisole was added to final concentrations of 0.4, 1.0 and 4.0 mM to prepare substrate solutions to be examined. As a control, a substrate solution containing 0.4 mM CDP-Star without levamisole was used. Each solution was kept at 4, 25, and 37° C. for 3 weeks, and each remaining activity was measured.
Further, the substrate solutions containing 0.4 mM levamisole and kept at 4° C. and 37° C. for 3 weeks were used to confirm the inhibitory effect of levamisole.

[4] = levamisole 0.2 mM in magnetic particles solution and substrate solution
[5] = levamisole 0.2 mM in substrate solution only
[6] = plasma (a), levamisole 0.2 mM in magnetic particles solution and substrate solution
[7] = plasma (a), levamisole 0.2 mM in substrate solution only
[8] = whole blood (b), levamisole 0.2 mM in magnetic particles solution and substrate solution
[9] = whole blood (b), levamisole 0.2 mM in substrate solution only

Sequence of endogenous ALP in whole blood (P05186 18-501 limits assumed): as above

- increased background caused by an endogenous ALP in whole blood samples or hemolized samples ([1]; addition of levamisole 0.2 mM): suppressed
- Negative control b/a (whole blood to plasma) [1, 4]: 2.33
- Positive control b/a (whole blood to plasma) [1, 4]: 1.22
- b/[levamisole (—) whole blood negative control] [1, 4]: 0.18
- b/[levamisole (—) whole blood positive control] [1, 4]: 0.79
- Negative control b/a (whole blood to plasma) [1, 5]: 2.41
- Positive control b/a (whole blood to plasma) [1, 5]: 1.33
- b/[levamisole (—) whole blood negative control] [1, 5]: 0.17
- b/[levamisole (—) whole blood positive control] [1, 5]: 0.94
- Positive control (S) measured value (count of luminescence) [1, 6]: 78622
- Positive control (S) measured value (count of luminescence) [1, 7]: 84776
- Negative control (N) measured value (count of luminescence) [1, 6]: 808
- S/N (positive control to negative control) [1, 6]: 97.3
- Negative control (N) measured value (count of luminescence) ([1]; plasma (a), levamisole 0.2 mM in substrate (CDP-star) solution only): 708
- S/N (positive control to negative control) [1, 7]: 119.7
- Positive control (S) measured value (count of luminescence) [1, 8]: 95856
- Positive control (S) measured value (count of luminescence) [1, 9]: 113017
- Negative control (N) measured value (count of luminescence) [1, 8]: 1883
- S/N (positive control to negative control) [1, 8]: 50.9
- Negative control (N) measured value (count of luminescence) ([1]; whole blood (b), levamisole 0.2 mM in substrate (CDP-star) solution only): 1705
- S/N (positive control to negative control) [1, 9]: 66.3
- count with stored substrate solution (inhibitory effect of levamisole) ([3]; 0.4 mM levamisole in 0.4 mM CDP-Star substrate solution kept at 4° C.): 4086
- count with stored substrate solution (inhibitory effect of levamisole) ([3]; 0.4 mM levamisole in 0.4 mM CDP-Star substrate solution kept at 37° C.): 2920
Compound: c1ccc([C@H]2CN3CCSC3=N2)cc1 [levamisole]
- effect on the ALP used as the label [2]: did not adversely affect
